Literature values as cited in patent US20230355701A1, “CO[…] COMPOUNDS” (CAAMTECH, INC., priority 2019, published 2023).
Like-named read-outs stand apart in the source and are kept apart here.

Legend:
hMOR = hMOR (Homo sapiens, UniProt P35372); details: for functional behaviour at hMOR: BRET functional assay
[1] = target: human kappa opioid receptor (hKOR) (Homo sapiens, UniProt P41145)
[2] = target: T1, human delta opioid receptor (hDOR) (Homo sapiens, UniProt P41143)
[3] = target: T1, human delta opioid receptor (hDOR); remark: listed apart in the source
[4] = mediated through agonist activity at hMOR
[5] = mice
[6] = rats
[7] = dogs, given intraperitoneally or orally
[8] = intracerebroventricular administration
[9] = given intraperitoneally or orally

hMOR, sequence (P35372 whole entry): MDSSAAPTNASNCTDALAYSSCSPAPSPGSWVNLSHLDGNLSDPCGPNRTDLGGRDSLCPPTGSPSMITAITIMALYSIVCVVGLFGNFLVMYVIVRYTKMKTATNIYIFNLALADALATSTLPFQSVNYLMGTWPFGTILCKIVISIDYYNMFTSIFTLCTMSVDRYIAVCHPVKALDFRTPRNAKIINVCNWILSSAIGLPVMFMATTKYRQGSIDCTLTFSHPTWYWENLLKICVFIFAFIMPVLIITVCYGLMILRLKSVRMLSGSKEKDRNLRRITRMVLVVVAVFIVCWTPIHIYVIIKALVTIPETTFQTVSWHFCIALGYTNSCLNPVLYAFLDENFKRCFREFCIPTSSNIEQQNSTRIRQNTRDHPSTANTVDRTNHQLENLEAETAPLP
human kappa opioid receptor (hKOR), sequence (P41145 whole entry): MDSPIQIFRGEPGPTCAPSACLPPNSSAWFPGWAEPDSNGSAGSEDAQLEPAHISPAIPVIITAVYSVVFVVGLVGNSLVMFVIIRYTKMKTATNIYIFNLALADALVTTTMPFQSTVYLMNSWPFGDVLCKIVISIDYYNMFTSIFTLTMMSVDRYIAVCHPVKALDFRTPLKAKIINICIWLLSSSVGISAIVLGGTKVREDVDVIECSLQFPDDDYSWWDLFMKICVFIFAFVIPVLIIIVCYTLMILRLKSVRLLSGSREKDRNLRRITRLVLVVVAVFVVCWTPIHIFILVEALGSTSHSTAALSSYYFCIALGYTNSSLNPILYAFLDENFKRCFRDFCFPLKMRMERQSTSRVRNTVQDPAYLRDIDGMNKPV
T1 sequence (P41143 whole entry): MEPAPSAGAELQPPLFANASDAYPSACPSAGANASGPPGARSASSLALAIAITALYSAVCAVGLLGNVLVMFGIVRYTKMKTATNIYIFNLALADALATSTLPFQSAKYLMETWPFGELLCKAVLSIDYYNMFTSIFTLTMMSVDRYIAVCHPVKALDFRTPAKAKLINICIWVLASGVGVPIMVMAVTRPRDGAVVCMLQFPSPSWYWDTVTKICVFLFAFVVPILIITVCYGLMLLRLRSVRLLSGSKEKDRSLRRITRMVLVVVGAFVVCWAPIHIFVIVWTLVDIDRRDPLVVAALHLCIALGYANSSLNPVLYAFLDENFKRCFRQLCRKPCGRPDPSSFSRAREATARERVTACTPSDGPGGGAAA

Row | Compound | functional behaviour at hMOR (hMOR) | IC50 [1] | functional behaviour at hKOR [1] | functional behaviour at hDOR [2] | binding at hDOR [3] | antagonist activity at hMOR (hMOR; hMOR) | also measured
1 | CC[C@@H]1CN2CC[C@@]3(O)C(=Nc4cccc(OC)c43)[C@@H]2C[C@@H]1/C(=C\OC)C(=O)OC [7-OH, 7-hydroxymitragynine] | partial agonists | micromolar range | competitive antagonists | weak antagonist activity | observed | – | analgesic effects [4]: exhibits analgesic effects
2 | CC[C@@H]1CN2CCc3c([nH]c4cccc(OC)c34)[C@@H]2C[C@@H]1/C(=C\OC)C(=O)OC [Mitragynine] | partial agonists | micromolar range | competitive antagonists | weak antagonist activity | negligible | – | analgesic activity ([5]; administered subcutaneously): inactive; analgesic potency [5, 9]: equivalent to codeine; analgesic activity ([6]; administered subcutaneously): inactive; analgesic potency [6, 9]: equivalent to codeine; analgesic potency [7]: equivalent to codeine; analgesic activity [8]: active analgesic
3 | C=C[C@H]1CN2CCc3c([nH]c4cccc(OC)c34)[C@@H]2C[C@@H]1/C(=C\OC)C(=O)OC [paynantheine] | – | – | – | – | – | competitive antagonist activity | IC50 (hMOR; hMOR): micromolar range
4 | CC[C@@H]1CN2CCc3c([nH]c4cccc(OC)c34)[C@H]2C[C@@H]1/C(=C\OC)C(=O)OC [speciociliatine] | – | – | – | – | – | competitive antagonist activity | –
5 | CCC1CN2CCc3c([nH]c4cccc(OC)c34)[C@@H]2C[C@@H]1/C(=C\OC)C(=O)OC (stereo partly drawn) [speciogynine] | – | – | – | – | – | competitive antagonist activity | –
